According to patent US20250025427A1, “MIXED AMIDE ESTER CONTAINING LIPIDS FOR USE IN LIPID NANOPARTICLES” (Acuitas Therapeutics, Inc., priority 2023, published 2025):

Test system: human IgG in mouse serum
Test: Immunoglobulin G (IgG) mRNA in vivo evaluation using lipid nanoparticle compositions
Set-up: species or system mice
Conditions: LNP with the cationic lipid, tail vein injection, μg IgG/mL serum 24 hours after administration; for Serum IgG (μg/mL) @ 0.3 mg/kg: 0.3 mg mRNA/kg; for Serum IgG (μg/mL) @ 1.0 mg/kg: 1.0 mg mRNA/kg
Method: A lipid of Formula (I), DSPC, cholesterol and PEG-lipid of Formula (II) are solubilized in ethanol at a molar ratio of 50:10:38.5:1.5 or 47.5:10:40.7:1.8. Lipid nanoparticles (LNP) are prepared at a total lipid to mRNA weight ratio of approximately 10:1 to 40:1. Briefly, the mRNA is diluted to 0.2 mg/mL in 10 to 50 mM citrate buffer, pH 4 to 6 or 10 to 25 mM acetate buffer, pH 4 to 6. Syringe pumps are used to mix the ethanolic lipid solution with the mRNA aqueous solution at a ratio of about 1:5 to 1:3 (vol/vol) with total flow rates above 15 mL/min. The ethanol is then removed, and the external buffer replaced with PBS by dialysis. Finally, the lipid nanoparticles are filtered through a 0.2 µm pore sterile filter.
Studies are performed in 6-8-week-old CD-1/ICR mice (Charles River or Inotiv) according to guidelines established by an institutional animal care committee (ACC) and the Canadian Council on Animal Care (CCAC). Varying doses of mRNA-lipid nanoparticle are systemically administered by tail vein injection and animals euthanized at a specific time point (e.g., 24 hours) post-administration. The whole blood is collected, and the serum subsequentially separated by centrifuging the tubes of the whole blood at 2000×g for 10 minutes at 4° C. and stored at −80° C. until use for analysis.
For immunoglobulin G (IgG) ELISA (Life Diagnostics Human IgG ELISA kit), the serum samples are diluted at 100 to 20,000 folds with 1× diluent solution. 100 μL of diluted serum is dispensed into anti-human IgG coated 96-well plate in duplicate alongside human IgG standards and incubated in a plate shaker at 150 rpm at 25° C. for 45 minutes. The wells are washed 5 times with 1× wash solution using a plate washer (400 μL/well). 100 μL of HRP conjugate is added into each well and incubated in a plate shaker at the same condition above. The wells are washed 5 times again with 1× wash solution using a plate washer (400 μL/well). 100 μL of TMB reagent is added into each well and incubated in a plate shaker at the same condition above. The reaction is stopped by adding 100 μL of Stop solution to each well. The absorbance is read at 450 nm (A450) with a microplate reader. The amount of human IgG in mouse serum is determined by plotting A450 values for the assay standard against human IgG concentration.
Representative compounds of the disclosure shown in Table 2 were formulated using the following molar ratio: 50% cationic lipid/10% distearoylphosphatidylcholine (DSPC)/38.5% Cholesterol/1.5% PEG lipid 2-[2-(ω-methoxy(polyethyleneglycohooo)ethoxy]-N,N-ditetradecylacetamide) or 47.5% cationic lipid/10% DSPC/40.7% Cholesterol/1.8% PEG lipid. Relative activity was determined by measuring the amount of human IgG […]. The activity was compared at a dose of 1.0 or 0.3 mg mRNA/kg and expressed as ng luciferase/g liver measured 4 hours after administration, as described in Example 1 or as μg IgG/mL serum measured 24 hours after administration, as described in Example 2. Compound numbers in Table 2 refer to the compound numbers of Table 1.

Compound | Serum IgG (μg/mL) @ 0.3 mg/kg [µg/mL] | Serum IgG (μg/mL) @ 1.0 mg/kg [µg/mL]
CCCCCCC(CCCC)COC(=O)CCCCCN(CCCCCC)C(=O)CCCCCCCN(C)CCCCCCCC(=O)N(CCCCCC)CCCCCC(=O)OCC(CCCC)CCCCCC (stereo not drawn) [Compound I-33, Bis(2-Butyloctyl) 6,6′-((8,8′-(Methylazanediyl)Bis(Octanoyl))Bis(Hexylazanediyl))Dihexanoate] | 75.8 ± 36.0 | –
CCCCCCCCC(CCCCCC)COC(=O)CCCCCN(CCCCCC)C(=O)CCCCCCN(C)CCCCCCC(=O)N(CCCCCC)CCCCCC(=O)OCC(CCCCCC)CCCCCCCC (stereo not drawn) [Compound I-24, Bis(2-Hexyldecyl) 6,6′-((7,7′-(Methylazanediyl)Bis(Heptanoyl))Bis(Hexylazanediyl))Dihexanoate] | 31.9 ± 6.4 | –
CCCCCCCCC(CCCCCC)COC(=O)CCCCCCCNC(=O)CCCCCCCCCN(C)CCCCCCCCCC(=O)NCCCCCCCC(=O)OCC(CCCCCC)CCCCCCCC (stereo not drawn) [Compound I-2, Bis(2-Hexyldecyl) 8,8′-((10,10′-(Methylazanediyl)Bis(Decanoyl))Bis(Azanediyl))Dioctanoate] | 70.7 ± 11.3 | 369.6 ± 59.4
CCCCCCCCC(CCCCCC)COC(=O)CCCCCN(CCCCCC)C(=O)CCCN(C)CCCC(=O)N(CCCCCC)CCCCCC(=O)OCC(CCCCCC)CCCCCCCC (stereo not drawn) [Compound I-52, Bis(2-Hexyldecyl) 6,6′-((4,4′-(Methylazanediyl)Bis(Butanoyl))Bis(Hexylazanediyl))Dihexanoate] | 13.0 ± 4.1 | –
CCCCCCCCC(CCCCCC)COC(=O)CCCCCN(CCCCCC)C(=O)CCCCCN(C)CCCCCCCC(=O)N(CCCCCC)CCCCCCOC(=O)C(CCCCCC)CCCCCCCC (stereo not drawn) [Compound I-46, 7,23,32-Trihexyl-16-Methyl-8,22,29-Trioxo-30-Oxa-7,16,23-Triazatetracontyl 2-Hexyldecanoate] | 34.4 ± 11.3 | –
CCCCCCCCC(CCCCCC)C(=O)OCCCCCCN(CCCCCC)C(=O)CCCCCCCN(CCCCCCCC(=O)N(CCCCCC)CCCCCCOC(=O)C(CCCCCC)CCCCCCCC)CCN(C)C (stereo not drawn) [Compound I-34, ((8,8′-((2-(Dimethylamino)Ethyl)Azanediyl)Bis(Octanoyl))Bis(Hexylazanediyl))Bis(Hexane-6,1-Diyl) Bis(2-Hexyldecanoate)] | 5.0 ± 0.8 | –
CCCCCCCCC(CCCCCC)COC(=O)CCCCN(CCCCCC)C(=O)CCCCCCCN(C)CCCCCCCC(=O)N(CCCCCC)CCCCC(=O)OCC(CCCCCC)CCCCCCCC (stereo not drawn) [Compound I-15, Bis(2-Hexyldecyl) 5,5′-((8,8′-(Methylazanediyl)Bis(Octanoyl))Bis(Hexylazanediyl))Dipentanoate] | 48.2 ± 12.7 | 135.0 ± 37.2
CCCCCCCCC(CCCCCC)COC(=O)CCCCCN(CCCCCC)C(=O)CCN(C)CCC(=O)N(CCCCCC)CCCCCC(=O)OCC(CCCCCC)CCCCCCCC (stereo not drawn) [Compound I-48, Bis(2-Hexyldecyl) 6,6′-((3,3′-(Methylazanediyl)Bis(Propanoyl))Bis(Hexylazanediyl))Dihexanoate] | 27.5 ± 12.7 | –
CCCCCCCCC(CCCCCC)COC(=O)CCCCCN(CCCCCC)C(=O)CCCCCCCN(CCCCCCCC(=O)N(CCCCCC)CCCCCC(=O)OCC(CCCCCC)CCCCCCCC)[C@H]1CC[C@@H](O)CC1 (stereo partly drawn) [Compound I-12, Rel-Bis(2-Hexyldecyl) 6,6′-((8,8′-(((1R,4R)-4-Hydroxycyclohexyl)Azanediyl)Bis(Octanoyl))Bis(Hexylazanediyl))Dihexanoate] | 29.6 ± 12.7 | –
CCCCCCCCC(CCCCCC)COC(=O)CCCCCCCN(CCCCCC)C(=O)CCCCN(C)CCCCC(=O)N(CCCCCC)CCCCCCCC(=O)OCC(CCCCCC)CCCCCCCC (stereo not drawn) [Compound I-18, Bis(2-Hexyldecyl) 8,8′-((5,5′-(Methylazanediyl)Bis(Pentanoyl))Bis(Hexylazanediyl))Dioctanoate] | 8.9 ± 4.9 | 32.4 ± 4.6
CCCCCCCCC(CCCCCC)COC(=O)CCCCC(=O)N(CCCCCC)CCCCCCCCN(C)CCCCCCCCN(CCCCCC)C(=O)CCCCC(=O)OCC(CCCCCC)CCCCCCCC (stereo not drawn) [Compound I-45, Bis(2-Hexyldecyl) 6,6′-(((Methylazanediyl)Bis(Octane-8,1-Diyl))Bis(Hexylazanediyl))Bis(6-Oxohexanoate)] | 18.3 ± 4.6 | –
CCCCCCCCC(CCCCCC)COC(=O)CCCCCN(C(=O)CCCCCCCN(C)CCCCCCCC(=O)N(CCCCCC(=O)OCC(CCCCCC)CCCCCCCC)C(C)C)C(C)C (stereo not drawn) [Compound I-28, Bis(2-Hexyldecyl) 6,6′-((8,8′-(Methylazanediyl)Bis(Octanoyl))Bis(Isopropylazanediyl))Dihexanoate] | 13.2 ± 4.3 | –
CCCCCCCCC(CCCCCC)C(=O)OCCCCCCCCC(=O)N(CCCCCC)CCCCCCN(C)CCCCCCN(CCCCCC)C(=O)CCCCCCCCOC(=O)C(CCCCCC)CCCCCCCC (stereo not drawn) [Compound I-13, (((methylazanediyl)bis(hexane-6,1-diyl))bis(hexylazanediyl))bis(9-oxononane-9,1-diyl) bis(2-hexyldecanoate)] | 11.3 ± 4.7 | –
CCCCCCCCC(CCCCCC)COC(=O)CCCCCCN(CCCCCC)C(=O)CCCCCCCN(C)CCCCCCCC(=O)N(CCCCCC)CCCCCCC(=O)OCC(CCCCCC)CCCCCCCC (stereo not drawn) [Compound I-14, Bis(2-Hexyldecyl) 7,7′-((8,8′-(Methylazanediyl)Bis(Octanoyl))Bis(Hexylazanediyl))Diheptanoate] | 33.4 ± 7.7 | –
CCCCCCCCCCN(CCCCCC(=O)OCC(CCCCCC)CCCCCCCC)C(=O)CCCCCCCN(C)CCCCCCCC(=O)N(CCCCCCCCCC)CCCCCC(=O)OCC(CCCCCC)CCCCCCCC (stereo not drawn) [Compound I-40, Bis(2-Hexyldecyl) 6,6′-((8,8′-(Methylazanediyl)Bis(Octanoyl))Bis(Decylazanediyl))Dihexanoate] | 13.8 ± 6.0 | –
CCCCCCCCC(CCCCCC)COC(=O)CCCCCCCCCN(CCCCCC)C(=O)CCCCCN(C)CCCCCC(=O)N(CCCCCC)CCCCCCCCCC(=O)OCC(CCCCCC)CCCCCCCC (stereo not drawn) [Compound I-22, Bis(2-Hexyldecyl) 10,10′-((6,6′-(Methylazanediyl)Bis(Hexanoyl))Bis(Hexylazanediyl))Bis(Decanoate)] | 11.9 ± 5.9 | –
CCCCCCCCC(CCCCCC)COC(=O)CCCCCN(CCCCCC)C(=O)CCCCCCCN(C)CCCCCCCC(=O)N(CCCCCC)CCCCCC(=O)OCC(CCCCCC)CCCCCCCC (stereo not drawn) [Compound I-25, Bis(2-Hexyldecyl) 6,6′-((8,8′-(Methylazanediyl)Bis(Octanoyl))Bis(Hexylazanediyl))Dihexanoate] | 55.3 ± 24.8 | 192.4 ± 106.8
CCCCCCCCC(CCCCCC)COC(=O)CCCCCCCN(CCCCCC)C(=O)CCCCCCN(C)CCCCCCC(=O)N(CCCCCC)CCCCCCCC(=O)OCC(CCCCCC)CCCCCCCC (stereo not drawn) [Compound I-16, Bis(2-Hexyldecyl) 8,8′-((7,7′-(Methylazanediyl)Bis(Heptanoyl))Bis(Hexylazanediyl))Dioctanoate] | 37.2 ± 9.7 | –
CCCCCCCCC(CCCCCC)COC(=O)CCCCCN(CCCCCCCC)C(=O)CCCCCCCN(C)CCCCCCCC(=O)N(CCCCCCCC)CCCCCC(=O)OCC(CCCCCC)CCCCCCCC (stereo not drawn) [Compound I-41, Bis(2-Hexyldecyl) 6,6′-((8,8′-(Methylazanediyl)Bis(Octanoyl))Bis(Octylazanediyl))Dihexanoate] | 19.2 ± 6.8 | –
CCCCCCCCC(CCCCCC)COC(=O)CCCCCN(CCCCCCCCN(C)CCCCCCCCN(CCCCCC(=O)OCC(CCCCCC)CCCCCCCC)C(=O)CCCCC)C(=O)CCCCC (stereo not drawn) [Compound I-43, Bis(2-Hexyldecyl) 6,6′-(((Methylazanediyl)Bis(Octane-8,1-Diyl))Bis(Hexanoylazanediyl))Dihexanoate] | 49.9 ± 14.8 | –
